Laboratory results from patent US11077106B2, “Cancer treatment” (Janssen Pharmaceutica NV, priority 2017, dated 2021).
Like-named read-outs stand apart in the source and are kept apart here.

Experiments:
[1] = system: metastatic or surgically unresectable urothelial cancer harboring select FGFR genetic alterations
Procedure: Assessments of tumor responses as reported herein were performed according to Response Evaluation Criteria in Solid Tumors (RECIST) version 1.1.
Included patients were adults with measurable urothelial cancer per Response Evaluation Criteria in Solid Tumors version 1.1.
Patients were required to have at least 1 FGFR2/FGFR3 mutation or fusion per central lab testing of RNA from formalin-fixed, paraffin-embedded tumor samples, using a custom assay.
Patients had progressed during or following at least 1 line of prior systemic chemotherapy or less than 12 months of neoadjuvant or adjuvant chemotherapy.
The primary end point of this ongoing study is Objective Response Rate to the selected regimen (Regimen 3).
Secondary end points include progression-free survival (PFS), duration of response (DoR), Overall Survival, safety, predictive biomarker evaluation, and pharmacokinetics.
Patients were assessed for efficacy using radiographic imaging performed within 30 days of screening, once every 6 weeks for the first 3 months, once every 12 weeks for the next 9 months, then once every 4 to 6 months until disease progression. Tumor responses were assessed by investigators according to RECIST version 1.1 (Eisenhauer E A et al., Eur J Cancer, 2009, 45(2), 228-247).

[2] = system: subjects with metastatic or surgically unresectable urothelial cancer
Procedure: The study comprises a Screening Phase (molecular screening at any time prior to first dose and study screening within 30 days of first dose), a treatment phase, and a post-treatment follow-up phase. The treatment phase comprises the period from first dose until the end-of-treatment visit. The follow-up phase will extend until the subject has died, withdraws consent, is lost to follow-up, or the end of study, whichever comes first. Study treatment is administered on 28-day cycles. Prior to interim analysis 1, there were 2 treatment regimens.
Safety was assessed continuously by the investigator and based on medical review of AE reports and the results of vital sign measurements, physical examinations, clinical laboratory tests, ECOG performance status, and other safety evaluations.

[3] = Regimen 1, 10 mg intermittent dose (n = 33)
[4] = Regimen 2, 6 mg continuous dose (n = 78)
[5] = Regimen 3, 8 mg continuous dose (n = 59)
[6] = Any grade, Regimen 2, 6 mg continuous dose (n = 78)
[7] = Any grade, Regimen 3, 8 mg continuous dose (n = 96)
[8] = Grade ≥ 3, Regimen 1, 10 mg intermittent dose (n = 33)
[9] = Grade ≥ 3, Regimen 2, 6 mg continuous dose (n = 78)
[10] = Grade ≥ 3, Regimen 3, 8 mg continuous dose (n = 96)

COc1cc(OC)cc(N(CCNC(C)C)c2ccc3ncc(-c4cnn(C)c4)nc3c2)c1 [erdafitinib, N-(3,5-dimethoxyphenyl)-N′-(1-methylethyl)-N-[3-(1-methyl-1H-pyrazol-4-y)quinoxalin-6-yl]ethane-1,2-diamine]
patients with reduction in the sum of target lesion diameters ([1]; 8 mg/d continuous erdafitinib (Regimen 3), 44/59 patients): 75% | Complete response [1, 3]: 2 (6) n (%) | Disease control rate, confirmed, n (%) [1, 3]: 24 (73) n (%) | ORR, confirmed, n (%) [1, 3]: 8 (24) n (%) | Partial response [1, 3]: 6 (18) n (%) | Progression-free survival, median, months [1, 3]: 4.0 months | Stable disease [1, 3]: 16 (49) n (%) | Complete response [1, 4]: 2 (3) n (%) | Disease control rate, confirmed, n (%) [1, 4]: 57 (73) n (%) | ORR, confirmed, n (%) [1, 4]: 27 (35) n (%) | Partial response [1, 4]: 25 (32) n (%) | Progression-free survival, median, months [1, 4]: 5.1 months | Stable disease [1, 4]: 30 (39) n (%) | Complete response [1, 5]: 3 (5) n (%) | Disease control rate, confirmed, n (%) [1, 5]: 48 (81) n (%) | ORR, confirmed, n (%) [1, 5]: 25 (42) n (%) | Partial response [1, 5]: 22 (37) n (%) | Progression-free survival, median, months [1, 5]: 5.6 months | Stable disease [1, 5]: 23 (39) n (%) | Median Progression Free Survival ([1]; across all dose regimens): 5.1 months | confirmed Objective Response Rate ([1]; across all dose regimens (n = 170), 95% CI, 28%-43%): 35% | confirmed disease control rate ([1]; among all patients (n = 170)): 76% | response to treatment in relation to number of prior lines of treatment ([1]; chemo-naïve, one prior line, or two or more prior lines of chemotherapy): independent of the number of prior lines treatment | median time to response ([1]; subset of 59 patients on Regimen 3): 1.41 months | TRAE: Alopecia [2, 6]: 7 (9) n (%) | TRAE: Asthenia [2, 6]: 12 (15) n (%) | TRAE: Decreased appetite [2, 6]: 18 (23) n (%) | TRAE: Diarrhea [2, 6]: 34 (44) n (%) | TRAE: Dry eye [2, 6]: 2 (3) n (%) | TRAE: Dry mouth [2, 6]: 31 (40) n (%) | TRAE: Dry skin [2, 6]: 17 (22) n (%) | TRAE: Dysgeusia [2, 6]: 10 (13) n (%) | TRAE: Fatigue [2, 6]: 14 (18) n (%) | TRAE: Hyperphosphatemia [2, 6]: 48 (62) n (%) | TRAE: Lacrimation increased [2, 6]: 11 (14) n (%) | TRAE: Nail dystrophy [2, 6]: 7 (9) n (%) | TRAE: Onycholysis [2, 6]: 13 (17) n (%) | TRAE: Palmar-plantar erythrodysaesthesia syndrome [2, 6]: 12 (15) n (%) | TRAE: Paronychia [2, 6]: 11 (14) n (%) | TRAE: Stomatitis [2, 6]: 32 (41) n (%) | TRAE: Vision blurred [2, 6]: 5 (6) n (%) | TRAE: Alopecia [2, 7]: 22 (23) n (%) | TRAE: Asthenia [2, 7]: 13 (14) n (%) | TRAE: Decreased appetite [2, 7]: 23 (24) n (%) | TRAE: Diarrhea [2, 7]: 40 (42) n (%) | TRAE: Dry eye [2, 7]: 17 (18) n (%) | TRAE: Dry mouth [2, 7]: 40 (42) n (%) | TRAE: Dry skin [2, 7]: 26 (27) n (%) | TRAE: Dysgeusia [2, 7]: 32 (33) n (%) | TRAE: Fatigue [2, 7]: 19 (20) n (%) | TRAE: Hyperphosphatemia [2, 7]: 66 (69) n (%) | TRAE: Lacrimation increased [2, 7]: 8 (8) n (%) | TRAE: Nail dystrophy [2, 7]: 12 (13) n (%) | TRAE: Onycholysis [2, 7]: 10 (10) n (%) | TRAE: Palmar-plantar erythrodysaesthesia syndrome [2, 7]: 15 (16) n (%) | TRAE: Paronychia [2, 7]: 14 (15) n (%) | TRAE: Stomatitis [2, 7]: 45 (47) n (%) | TRAE: Vision blurred [2, 7]: 15 (16) n (%) | TRAE: Alopecia [2, 8]: 0 n (%) | TRAE: Asthenia [2, 8]: 2 (6) n (%) | TRAE: Decreased appetite [2, 8]: 0 n (%) | TRAE: Diarrhea [2, 8]: 1 (3) n (%) | TRAE: Dry eye [2, 8]: 0 n (%) | TRAE: Dry mouth [2, 8]: 0 n (%) | TRAE: Dry skin [2, 8]: 0 n (%) | TRAE: Dysgeusia [2, 8]: 0 n (%) | TRAE: Fatigue [2, 8]: 0 n (%) | TRAE: Hyperphosphatemia [2, 8]: 0 n (%) | TRAE: Lacrimation increased [2, 8]: 0 n (%) | TRAE: Nail dystrophy [2, 8]: 0 n (%) | TRAE: Onycholysis [2, 8]: 0 n (%) | TRAE: Palmar-plantar erythrodysaesthesia syndrome [2, 8]: 0 n (%) | TRAE: Paronychia [2, 8]: 0 n (%) | TRAE: Stomatitis [2, 8]: 1 (3) n (%) | TRAE: Vision blurred [2, 8]: 0 n (%) | TRAE: Alopecia [2, 9]: 0 n (%) | TRAE: Asthenia [2, 9]: 4 (5) n (%) | TRAE: Decreased appetite [2, 9]: 2 (3) n (%) | TRAE: Diarrhea [2, 9]: 0 n (%) | TRAE: Dry eye [2, 9]: 1 (1) n (%) | TRAE: Dry mouth [2, 9]: 2 (3) n (%) | TRAE: Dry skin [2, 9]: 0 n (%) | TRAE: Dysgeusia [2, 9]: 0 n (%) | TRAE: Fatigue [2, 9]: 1 (1) n (%) | TRAE: Hyperphosphatemia [2, 9]: 0 n (%) | TRAE: Lacrimation increased [2, 9]: 0 n (%) | TRAE: Nail dystrophy [2, 9]: 0 n (%) | TRAE: Onycholysis [2, 9]: 5 (6) n (%) | TRAE: Palmar-plantar erythrodysaesthesia syndrome [2, 9]: 0 n (%) | TRAE: Paronychia [2, 9]: 0 n (%) | TRAE: Stomatitis [2, 9]: 7 (9) n (%) | TRAE: Vision blurred [2, 9]: 1 (1) n (%) | TRAE: Alopecia [2, 10]: 0 n (%) | TRAE: Asthenia [2, 10]: 3 (3) n (%) | TRAE: Decreased appetite [2, 10]: 0 n (%) | TRAE: Diarrhea [2, 10]: 3 (3) n (%) | TRAE: Dry eye [2, 10]: 0 n (%) | TRAE: Dry mouth [2, 10]: 0 n (%) | TRAE: Dry skin [2, 10]: 0 n (%) | TRAE: Dysgeusia [2, 10]: 1 (1) n (%) | TRAE: Fatigue [2, 10]: 1 (1) n (%) | TRAE: Hyperphosphatemia [2, 10]: 2 (2) n (%) | TRAE: Lacrimation increased [2, 10]: 0 n (%) | TRAE: Nail dystrophy [2, 10]: 3 (3) n (%) | TRAE: Onycholysis [2, 10]: 1 (1) n (%) | TRAE: Palmar-plantar erythrodysaesthesia syndrome [2, 10]: 4 (4) n (%) | TRAE: Paronychia [2, 10]: 3 (3) n (%) | TRAE: Stomatitis [2, 10]: 8 (8) n (%) | TRAE: Vision blurred [2, 10]: 0 n (%) | patients discontinued as the result of TRAEs ([2]; across all dose regimens (22 patients)): 11% | treatment-related deaths ([2]; across all dose regimens, safety population N=207): no treatment-related deaths | patients reporting grade 4 TRAEs ([2]; across all dose regimens, safety population N=207 (n=1)): 0.5% | patients reporting grade 3 TRAEs ([2]; across all dose regimens, safety population N=207 (n=69)): 33% | patients reporting TRAEs ([2]; across all dose regimens, safety population N=207 (n=195)): 94% | patients reporting retinopathy ([2]; across all dose regimens, grade 2 [n=1] and grade 3 [n=1]): 2 patients
